{"source": "patent US20230119013A1", "about": "“N-CYANOPYRROLIDINES WITH ACTIVITY AS USP30 INHIBITORS” (MISSION THERAPEUTICS LIMITED, priority 2020, published 2023)", "key": {"[1]": {"molecular_target": "T1, USP30 (Homo sapiens, UniProt Q70CQ3)", "T1 construct": "purchased Boston Biochem E582", "T1 sequence (Q70CQ3 57-517 limits assumed)": "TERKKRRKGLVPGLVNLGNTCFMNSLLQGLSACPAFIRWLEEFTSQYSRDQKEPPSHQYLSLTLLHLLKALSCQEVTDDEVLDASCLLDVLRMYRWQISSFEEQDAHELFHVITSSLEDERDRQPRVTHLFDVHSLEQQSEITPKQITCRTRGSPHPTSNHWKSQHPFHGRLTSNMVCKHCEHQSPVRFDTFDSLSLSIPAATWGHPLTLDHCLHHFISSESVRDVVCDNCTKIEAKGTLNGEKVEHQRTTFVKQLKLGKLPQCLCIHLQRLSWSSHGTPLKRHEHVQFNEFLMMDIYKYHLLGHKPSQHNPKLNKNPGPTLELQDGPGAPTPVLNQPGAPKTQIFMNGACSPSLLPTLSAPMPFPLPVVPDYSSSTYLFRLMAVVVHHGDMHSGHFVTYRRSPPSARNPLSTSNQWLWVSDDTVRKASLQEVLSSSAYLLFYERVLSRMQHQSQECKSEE", "assay": "USP30 biochemical IC50 assay (fluorescence polarisation)", "details": "for pIC50: read-out: USP30 IC50", "method": "Dilution plates were prepared at 21 times the final concentration (2100 μM for a final concentration of 100 μM) in 50% DMSO in a 96-well polypropylene V-bottom plate (Greiner #651201). A typical 8-point dilution series would be 100, 30, 10, 3, 1, 0.3, 0.1, 0.03 μM final. Reactions were performed in duplicate in black 384 well plates (small volume, Greiner 784076) in a final reaction volume of 21 μl. Either 1 μl of 50% DMSO or diluted compound was added to the plate. USP30 (Boston Biochem #E582) was diluted in reaction buffer (40 mM Tris, pH 7.5, 0.005% Tween 20, 0.5 mg/ml BSA, 5 mM beta-mercaptoethanol) to achieve a final assay concentration of 4 nM, and 10 μl of diluted USP30 was added to the compound. Enzyme and compound were incubated for 30 min at room temp. Reactions were initiated by the addition of 50 nM of TAMRA labelled peptide linked to ubiquitin via an iso-peptide bond as fluorescence polarisation substrate. Reactions were read immediately after addition of substrate and following a 2-hour incubation at room temperature. Readings were performed on a Pherastar Plus (BMG Labtech). λ Excitation 540 nm; Emission 590 nm."}, "[2]": {"molecular_target": "T2, UCHL1 (Homo sapiens, UniProt P09936)", "T2 sequence (P09936 1-223)": "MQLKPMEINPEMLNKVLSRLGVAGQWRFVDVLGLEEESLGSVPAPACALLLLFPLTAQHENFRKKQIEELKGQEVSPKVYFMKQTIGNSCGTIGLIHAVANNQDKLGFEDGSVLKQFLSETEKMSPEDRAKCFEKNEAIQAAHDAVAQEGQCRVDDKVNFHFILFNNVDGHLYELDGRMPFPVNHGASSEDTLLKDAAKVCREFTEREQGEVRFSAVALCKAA", "assay": "DUB IC50 UCHL1", "format": "biochemical"}, "[3]": {"tested_on": "USP2, USP10, USP16, USP21, USP22, USP25, USP28", "assay": "DUB IC50, seven DUBs", "format": "biochemical", "details": "for DUB selectivity preference for USP30 v 7 DUBs: range over the seven DUBs"}, "[4]": {"tested_on": "T3, USP2, USP10, USP16, USP21, USP22, USP25, USP28", "T3 construct": "DUB IC50 (μM) USP2, USP10, USP16, USP21, USP22, USP25, USP28; other: range over the seven DUBs", "assay": "DUB IC50, seven DUBs", "format": "biochemical", "details": "range over the seven DUBs"}, "[5]": {"tested_on": "HCT116 human colorectal carcinoma cells", "assay": "In vitro cytotoxicity (Cell Tox), alamarBlue", "format": "cell-based", "details": "HCT-116, 96-hour continual compound exposure", "method": "In Vitro Cytotoxicity (Cell Tox): Measured in HCT116 human colorectal carcinoma cells using alamarBlue™ as the assay endpoint. Compound cytotoxicity was measured over a period of 96-hour continual compound exposure."}, "[6]": {"tested_on": "hepatocyte", "assay": "Hepatocyte clearance mouse", "format": "in vitro ADME", "details": "mouse hepatocytes", "description": "(§1) log P: partition coefficient; lipophilicity measurement. log D: distribution co-efficient; lipophilicity measurement. TPSA: topological polar surface area. Turbidimetric solubility: Test compound solution prepared in DMSO diluted into aqueous buffer. Turbidimetry is used as the end-point by measuring absorbance at 620 nm. FaSSIF: simulated intestinal fluid in fasted state measured at pH 6.5. Hep Cl mouse: in vitro hepatocyte clearance in mouse cells. Hep Cl human: in vitro hepatocyte clearance in human cells. Plasma fu,p: The free fraction of a compound in plasma preparation determined by in vitro equilibrium dialysis. It is understood that only unbound (free) compound is capable of engaging with the target. Brain fu,br: The free fraction of a compound in brain homogenate preparation determined by in vitro equilibrium dialysis. It is understood that only unbound (free) compound is capable of engaging with the target. Clu: in vitro clearance. Clu as defined here is the scaled clearance, in turn calculated from the intrinsic clearance. The intrinsic clearance is the predicted clearance due to hepatic metabolic reactions, determined from incubation of a compound in a hepatocyte preparation. […] Cl in vivo clearance: Pharmacokinetic measurement of the volume of plasma (or any matrix) from which a substance is completely removed per unit time."}, "[7]": {"assay": "Mouse plasma stability", "format": "in vitro ADME", "details": "read-out: Stability Mouse plasma t1/2"}, "[8]": {"assay": "Plasma free fraction by equilibrium dialysis", "format": "in vitro ADME", "details": "mouse plasma; read-out: Binding Mouse Plasma fu, p", "description": "as §1"}, "[9]": {"tested_on": "TOM20 ubiquitylation", "assay": "TOM20-ubiquitylation assay", "format": "cell-based, human", "details": "antimycin A/oligomycin mitophagy trigger", "description": "Human cell lines can be challenged with mitochondrial depolarizing agents (ionophores (eg. CCCP, valinomycin), mitochondrial complex inhibitors (oligomycin, antimycin A)) to induce ubiquitylation of TOM20, which is then further promoted in the presence of USP30 inhibitors. TOM20 ubiquitylation is subsequently assessed through western blotting of the cell lysates, with TOM20 ubiquitylation adduct detection possible due to an 8 kDa molecule weight increase for each molecule of ubiquitin added, resulting in laddering of a TOM20 immunoreactive band. TOM20-ubiquitylation levels can be quantified using chemiluminescence densitometry of laddered immunoreactive bands."}, "[10]": {"tested_on": "cathepsins B, K, L, S and V", "assay": "Cathepsin IC50, summary over B, K, L, S, V", "format": "biochemical", "details": "K, L"}, "[11]": {"tested_on": "T4, cathepsins B, K, L, S and V", "T4 construct": "Cathepsin IC50 (μM) B, K, L, S, V; other: range over the five cathepsins", "assay": "Cathepsin IC50, summary over B, K, L, S, V", "format": "biochemical", "details": "range over the five cathepsins"}}, "note": "pEC50, pIC50: −log10 of the molar value. Like-named read-outs stand apart in the source and are kept apart here.", "data": [{"smiles": "N#Cc1ccc(-c2cnc(NC(=O)[C@H]3CCN(C#N)C3)s2)cc1OC(F)(F)F", "note": "[B, reference compound]", "values": [{"measurement": "IC50", "setting": "[1]; read-out: DUB IC50 (μM) USP30", "value": 0.172, "unit": "µM"}, {"measurement": "pIC50", "setting": "[1]", "value": 6.76}, {"measurement": "DUB selectivity preference for USP30 v UCHL1", "setting": "[2]", "value": 4.5}, {"measurement": "IC50", "setting": "[2]", "value": 0.77, "unit": "µM"}, {"measurement": "fold more potent against USP30 than UCHL1", "setting": "[2]", "value": 4.5, "unit": "fold"}]}, {"smiles": "N#CN1CC[C@H](C(=O)Nc2ncc(-c3ccccc3)s2)C1", "note": "[C, reference compound]", "values": [{"measurement": "fold more potent against USP30 than UCHL1", "setting": "[2]", "value": 0.8, "unit": "fold"}]}, {"smiles": "CC1CC(C(=O)Nc2ncc(-c3ccccc3)s2)CN1C#N", "note": "(stereo not drawn) [D, reference compound]", "values": [{"measurement": "fold more potent against USP30 than UCHL1", "setting": "[2]", "value": 1.5, "unit": "fold"}]}, {"smiles": "COC[C@H]1C[C@@H](NC(=O)c2ncc(-c3cccc(OC(F)(F)F)c3)o2)CN1C#N", "note": "[Example 3, N-((3R,5R)-1-Cyano-5-(methoxymethyl)pyrrolidin-3-yl)-5-(3-(trifluoromethoxy)phenyl)oxazole-2-carboxamide]", "values": [{"measurement": "fold more potent against USP30 than Reference Example A", "setting": "[1]; biochemical assay", "value": 9, "unit": "fold"}, {"measurement": "fold more potent against USP30 than Reference Example B", "setting": "[1]; biochemical assay", "value": 22, "unit": "fold"}, {"measurement": "fold more potent against USP30 than Reference Example C", "setting": "[1]; biochemical assay", "value": 39, "unit": "fold"}, {"measurement": "fold more potent against USP30 than Reference Example D", "setting": "[1]; biochemical assay", "value": 550, "unit": "fold"}, {"measurement": "pIC50", "setting": "[1]", "value": 8.10}, {"measurement": "DUB selectivity preference for USP30 v 7 DUBs", "setting": "[3]", "value": ">37500"}, {"measurement": "IC50", "setting": "[4]", "value": "> 300", "unit": "µM"}, {"measurement": "DUB selectivity preference for USP30 v UCHL1", "setting": "[2]", "value": 37500}, {"measurement": "IC50", "setting": "[2]", "value": "> 300", "unit": "µM"}, {"measurement": "pEC50", "setting": "[5]", "value": 4.62}, {"measurement": "Hepatocyte Cl mouse scaled Clu", "setting": "[6]", "value": 97.4, "unit": "mL/min/kg"}, {"measurement": "half-life", "setting": "[7]", "value": "> 120", "unit": "min"}, {"measurement": "fraction unbound", "setting": "[8]", "value": 0.036}, {"measurement": "TOM20-Ub 1.5-fold gain EC1.5x (μM)", "setting": "[9]", "value": "0.210 (n = 1) μM"}]}, {"smiles": "COc1cccc(-c2cc(C(=O)N[C@@H]3CCN(C#N)C3)on2)c1", "note": "[Reference Example A, reference compound]", "values": [{"measurement": "fold more potent against USP30 than against each of the seven DUBs, at a minimum", "setting": "[3]; USP2, USP10, USP16, USP21, USP22, USP25 and USP28", "value": 2.7, "unit": "fold"}, {"measurement": "DUB selectivity preference for USP30 v 7 DUBs", "setting": "[3]", "value": "2.7-141"}, {"measurement": "IC50", "setting": "[4]", "value": "0.19 to 9.9", "unit": "µM"}, {"measurement": "fold more potent against USP30 than against each of the cathepsins, at a minimum", "setting": "[10]; cathepsins B, S and V", "value": 11, "unit": "fold"}, {"measurement": "Selectivity preference for USP30 v cathepsins", "setting": "[10]; range over cathepsins B, S, V", "value": "11-126"}, {"measurement": "IC50", "setting": "[11]", "value": "0.79 to 8.8", "unit": "µM"}]}]}
